According to patent publication US10370356B2, “Pyridinone dicarboxamide for use as bromodomain inhibitors” (GlaxoSmithKline Intellectual Property (No. 2) Limited, priority 2015, dated 2019):
Structures can show the parent of a compound that is named as a salt. Where two headings read alike, the source gives them in different places.

Target: T1, BRD4 BD2 (Homo sapiens, UniProt O60885, Y97A)
T1 construct: BRD4 (1-477) (Y97A) and (Y390A); made in house; host or cells: E. coli (pET15b vector)
Assay: BRD4 BD2 mutant TR-FRET competition assay
Format: binding

[1] = read-out: pIC50 in the BRD4 BD2 assay (converted)
[2] = average of N recorded values, read-out: BRD4 BD2 IC50 (average value) (converted)

SMILES	IC50 [1] [nM]	IC50 [2] [nM]
CNC(=O)c1cc(C(=O)NCCC2CCNCC2)cn(Cc2ccccc2)c1=O [Example 2, 1-Benzyl-N^3-methyl-2-oxo-N^5-(2-(piperidin-4-yl)ethyl)-1,2-dihydropyridine-3,5-dicarboxamide]	≤ 100	–
CNC(=O)c1cc(C(=O)NCCC2CCN(C)CC2)cn(Cc2ccccc2)c1=O [Example 3, 1-Benzyl-N^3-methyl-N^5-(2-(1-methylpiperidin-4-yl)ethyl)-2-oxo-1,2-dihydropyridine-3,5-dicarboxamide]	≤ 100	–
CNC(=O)c1cc(C(=O)NC2CN(C(=O)OC(C)(C)C)C2)cn(Cc2ccccc2)c1=O [Example 4, tert-Butyl 3-(1-benzyl-5-(methylcarbamoyl)-6-oxo-1,6-dihydropyridine-3-carboxamido)azetidine-1-carboxylate]	100 to 1000	–
CNC(=O)c1cc(C(=O)NCCCC2CCN(C(=O)OC(C)(C)C)CC2)cn(Cc2ccccc2)c1=O [Example 5]	100 to 1000	–
CNC(=O)c1cc(C(=O)NCCCC2CCNCC2)cn(Cc2ccccc2)c1=O [Example 6a, 1-Benzyl-N^3-methyl-2-oxo-N^5-(3-(piperidin-4-yl)propyl)-1,2-dihydropyridine-3,5-dicarboxamide]	≤ 100	31.6
CNC(=O)c1cc(C(=O)NCCCC2CCN(C)CC2)cn(Cc2ccccc2)c1=O [Example 7, 1-Benzyl-N^3-methyl-N^5-(3-(1-methylpiperidin-4-yl)propyl)-2-oxo-1,2-dihydropyridine-3,5-dicarboxamide]	≤ 100	31.6
CNC(=O)c1cc(C(=O)NCCCC2CCN(C(C)=O)CC2)cn(Cc2ccccc2)c1=O [Example 8, N^5-(3-(1-Acetylpiperidin-4-yl)propyl)-1-benzyl-N^3-methyl-2-oxo-1,2-dihydropyridine-3,5-dicarboxamide]	100 to 1000	–
CNC(=O)c1cc(C(=O)NCCC2CCOC2)cn(Cc2ccccc2)c1=O (stereo not shown) [Example 9, 1-Benzyl-N^3-methyl-2-oxo-N^5-(2-(tetrahydrofuran-3-yl)ethyl)-1,2-dihydropyridine-3,5-dicarboxamide]	100 to 1000	–
CNC(=O)c1cc(C(=O)NCCCC2CCN(CC(F)(F)F)CC2)cn(Cc2ccccc2)c1=O [Example 10]	≤ 100	–
CCN1CCC(CCCNC(=O)c2cc(C(=O)NC)c(=O)n(Cc3ccccc3)c2)CC1 [Example 11, 1-Benzyl-N^5-(3-(1-ethylpiperidin-4-yl)propyl)-N^3-methyl-2-oxo-1,2-dihydropyridine-3,5-dicarboxamide]	≤ 100	–
CNC(=O)c1cc(C(=O)NCCCN2CCNCC2)cn(Cc2ccccc2)c1=O [Example 12, 1-Benzyl-N^3-methyl-2-oxo-N^5-(3-(piperazin-1-yl)propyl)-1,2-dihydropyridine-3,5-dicarboxamide, hydrochloride]	≤ 100	–
CNC(=O)c1cc(C(=O)NCCC2CCS(=O)(=O)CC2)cn(Cc2ccccc2)c1=O [Example 13, 1-Benzyl-N^5-(2-(1,1-dioxidotetrahydro-2H-thiopyran-4-yl)ethyl)-N^3-methyl-2-oxo-1,2-dihydropyridine-3,5-dicarboxamide]	100 to 1000	–
CNC(=O)c1cc(C(=O)NCCCC2CCNCC2)cn(Cc2ccccc2F)c1=O [Example 14, 1-(2-Fluorobenzyl)-N^3-methyl-2-oxo-N^5-(3-(piperidin-4-yl)propyl)-1,2-dihydropyridine-3,5-dicarboxamide]	≤ 100	–
CNC(=O)c1cc(C(=O)NCCCC2CCNCC2)cn(Cc2cccc(C)c2)c1=O [Example 15, N^3-Methyl-1-(3-methylbenzyl)-2-oxo-N^5-(3-(piperidin-4-yl)propyl)-1,2-dihydropyridine-3,5-dicarboxamide]	≤ 100	–
CNC(=O)c1cc(C(=O)NCCC2CCNCC2)cn(Cc2cccc(C)c2)c1=O [Example 16, N^3-Methyl-1-(3-methylbenzyl)-2-oxo-N^5-(2-(piperidin-4-yl)ethyl)-1,2-dihydropyridine-3,5-dicarboxamide]	≤ 100	–
CNC(=O)c1cc(C(=O)NCCCC2CCNCC2)cn([C@H](C)c2ccccc2)c1=O [Example 17, (R)-N^3-Methyl-2-oxo-1-(1-phenylethyl)-N^5-(3-(piperidin-4-yl)propyl)-1,2-dihydropyridine-3,5-dicarboxamide]	≤ 100	–
CNC(=O)c1cc(C(=O)NCCC2CCNCC2)cn([C@H](C)c2ccccc2)c1=O [Example 18, (R)-N^3-Methyl-2-oxo-1-(1-phenylethyl)-N^5-(2-(piperidin-4-yl)ethyl)-1,2-dihydropyridine-3,5-dicarboxamide]	≤ 100	–
CNC(=O)c1cc(C(=O)NCCCC2CCNCC2)cn(Cc2cccc(OC)c2)c1=O [Example 19, 1-(3-Methoxybenzyl)-N^3-methyl-2-oxo-N^5-(3-(piperidin-4-yl)propyl)-1,2-dihydropyridine-3,5-dicarboxamide]	≤ 100	–
CNC(=O)c1cc(C(=O)NCCC2CCNCC2)cn(Cc2cccc(OC)c2)c1=O [Example 20, 1-(3-Methoxybenzyl)-N^3-methyl-2-oxo-N^5-(2-(piperidin-4-yl)ethyl)-1,2-dihydropyridine-3,5-dicarboxamide]	100 to 1000	–

SMILES	IC50 [1] [nM]	IC50 [2] [nM]
CNC(=O)c1cc(C(=O)NCCCC2CCNCC2)cn(Cc2ccc(F)c(C)c2)c1=O [Example 21, 1-(4-Fluoro-3-methylbenzyl)-N^3-methyl-2-oxo-N^5-(3-(piperidin-4-yl)propyl)-1,2-dihydropyridine-3,5-dicarboxamide]	≤ 100	–
CNC(=O)c1cc(C(=O)NCCCC2CCNCC2)cn(Cc2ccc(F)cc2)c1=O [Example 22, 1-(4-Fluorobenzyl)-N^3-methyl-2-oxo-N-(3-(piperidin-4-1)propyl)-1,2-dihydropyridine-3,5-dicarboxamide]	≤ 100	–
CNC(=O)c1cc(C(=O)NCCCC2CCNCC2)cn(Cc2cccc(OCCO)c2)c1=O [Example 23, 1-(3-(2-Hydroxyethoxy)benzyl)-N^3-methyl-2-oxo-N^5-(3-(piperidin-4-yl)propyl)-1,2-dihydropyridine-3,5-dicarboxamide]	≤ 100	50.1
CNC(=O)c1cc(C(=O)NCCC2CCNCC2)cn(Cc2cccc(OCCO)c2)c1=O [Example 24, 1-(3-(2-Hydroxyethoxy)benzyl)-N^3-methyl-2-oxo-N^5-(2-(piperidin-4-yl)ethyl)-1,2-dihydropyridine-3,5-dicarboxamide]	≤ 100	–
CNC(=O)c1cc(C(=O)NCCCC2CCN(CCO)CC2)cn(Cc2ccccc2)c1=O [Example 25]	≤ 100	39.8
CNC(=O)c1cc(C(=O)NCCCC2CCNCC2)cn(Cc2cccc(C)c2F)c1=O [Example 26, 1-(2-Fluoro-3-methylbenzyl)-N^3-methyl-2-oxo-N^5-(3-(piperidin-4-yl)propyl)-1,2-dihydropyridine-3,5-dicarboxamide]	≤ 100	–
CNC(=O)c1cc(C(=O)NCCC2CCNCC2)cn(Cc2cccc(C)c2F)c1=O [Example 27, 1-(2-Fluoro-3-methylbenzyl)-N^3-methyl-2-oxo-N^5-(2-(piperidin-4-yl)ethyl)-1,2-dihydropyridine-3,5-dicarboxamide]	100 to 1000	–
CNC(=O)c1cc(C(=O)NCCCC2CCN(CC(F)F)CC2)cn(Cc2ccccc2)c1=O [Example 28]	≤ 100	–
CNC(=O)c1cc(C(=O)NCCCC2CCN(CCF)CC2)cn(Cc2ccccc2)c1=O [Example 29, 1-Benzyl-N^5-(3-(1-(2-fluoroethyl)piperidin-4-yl)propyl)-N^3-methyl-2-oxo-1,2-dihydropyridine-3,5-dicarboxamide. formic acid salt]	≤ 100	25.1
CNC(=O)c1cc(C(=O)NCCCC2CCNCC2)cn(Cc2cccc3[nH]ccc23)c1=O [Example 30, 1-((1H-Indol-4-yl)methyl)-N^3-methyl-2-oxo-N^5-(3-(piperidin-4-yl)propyl)-1,2-dihydropyridine-3,5-dicarboxamide]	≤ 100	10
CNC(=O)c1cc(C(=O)NCCC2CCCOC2)cn(Cc2ccccc2)c1=O (stereo not shown) [Example 31, 1-Benzyl-N^3-methyl-2-oxo-N^5-(2-(tetrahydro-2H-pyran-3-yl)ethyl)-1,2-dihydropyridine-3,5-dicarboxamide]	100 to 1000	–
CNC(=O)c1cc(C(=O)NCCC2CCN(C(=O)OC(C)(C)C)CC2)cn(Cc2ccccc2)c1=O [Example 32, tert-Butyl 4-(2-(1-benzyl-5-(methylcarbamoyl)-6-oxo-1,6-dihydropyridine-3-carboxamido)ethyl)piperidine-1-carboxylate]	100 to 1000	–
CNC(=O)c1cc(C(=O)NC2CNC2)cn(Cc2ccccc2)c1=O [Example 33, N^5-(Azetidin-3-l)-1-benzyl-N^3-methyl-2-oxo-1,2-dihydropyridine-3,5-dicarboxamide]	100 to 1000	–
CNC(=O)c1cc(C(=O)NC2CN(C)C2)cn(Cc2ccccc2)c1=O [Example 34, 1-Benzyl-N^3-methyl-N^5-(1-methylazetidin-3-yl)-2-oxo-1,2-dihdyropyridine-3,5-dicarboxamide]	1000 to 100000	–
CNC(=O)c1cc(C(=O)NC2CC3OCCCC23)cn(Cc2ccccc2)c1=O (stereo not shown) [Example 35, 1-Benzyl-N^5-(2-oxabicyclo[4.2.0]octan-7-yl)-N^3-methyl-2-oxo-1,2-dihydropyridine-3,5-dicarboxamide]	1000 to 100000	–
CNC(=O)c1cc(C(=O)NCCC2CCN(C)C2)cn(Cc2ccccc2)c1=O (stereo not shown) [Example 36, 1-Benzyl-N^3-methyl-N^5-(2-(1-methylpyrrolidin-3-yl)ethyl)-2-oxo-1,2-dihydropyridine-3,5-dicarboxamide]	100 to 1000	–
CNC(=O)c1cc(C(=O)NCCCN2CCOCC2)cn(Cc2ccccc2)c1=O [Example 37, 1-Benzyl-N^3-methyl-N^5-(3-morpholinopropyl)-2-oxo-1,2-dihydropyridine-3,5-dicarboxamide]	100 to 1000	–
CNC(=O)c1cc(C(=O)NCCC2CCCN(C(=O)OC(C)(C)C)C2)cn(Cc2ccccc2)c1=O (stereo not shown) [Example 38, tert-Butyl 3-(2-(1-benzyl-5-(methylcarbamoyl)-6-oxo-1,6-dihydropyridine-3-carboxamido)ethyl)piperidine-1-carbxylate]	1000 to 100000	–
